In the NIST ThermoML archive (doi:10.1021/acs.jced.6b00606):

Legend:
[1] = excess molar enthalpy (molar enthalpy of mixing); xn = mol fraction of the nth substance listed; details: 308.15 K, 100 kPa, Liquid, Calvet calorimetry
[2] = xn = mol fraction of the nth substance listed; details: 100 kPa, Liquid; for speed of sound: Frequency=3 MHz, Sing-around technique in a fixed-path interferometer; for mass density: Vibrating tube method

O=C1CCCCC1 [cyclohexanone] + C1COCCO1
[1]
Details	excess molar enthalpy [kcal/mol]
x2 = 0.0792	0.0195
x2 = 0.1286	0.0298
x2 = 0.1749	0.0381
x2 = 0.2236	0.0458
x2 = 0.2743	0.0526
x2 = 0.3289	0.0587
x2 = 0.3729	0.0627
x2 = 0.4298	0.0666
x2 = 0.4715	0.0686
x2 = 0.5242	0.07
x2 = 0.5735	0.0701
x2 = 0.6199	0.0691
x2 = 0.7182	0.0627
x2 = 0.7628	0.0576
x2 = 0.8193	0.0489
x2 = 0.8672	0.0394
x2 = 0.9173	0.0269

[2]
Details	mass density, 293.15 K [kg/m3]	mass density, 298.15 K [kg/m3]	mass density, 303.15 K [kg/m3]	mass density, 308.15 K [kg/m3]	speed of sound, 293.15 K [m/s]	speed of sound, 298.15 K [m/s]	speed of sound, 303.15 K [m/s]	speed of sound, 308.15 K [m/s]
x2 = 0.0999	953.66	949.13	944.25	939.34	1423.2	1407.2	1387	1367.1
x2 = 0.1548	957.29	952.73	947.83	942.9	1419	1402.8	1382.6	1362.7
x2 = 0.2064	960.83	956.23	951.32	946.37	1415.2	1398.7	1378.5	1358.7
x2 = 0.2523	964.08	959.45	954.52	949.56	1411.8	1395.1	1374.9	1355
x2 = 0.3087	968.21	963.55	958.59	953.6	1407.8	1390.8	1370.6	1350.6
x2 = 0.3412	970.67	965.97	960.99	955.99	1405.5	1388.3	1368.1	1348.1
x2 = 0.3952	974.86	970.12	965.11	960.08	1401.8	1384.3	1364	1343.9
x2 = 0.4315	977.76	972.99	967.96	962.9	1399.3	1381.6	1361.3	1341.2
x2 = 0.4875	982.38	977.54	972.47	967.38	1395.6	1377.6	1357.2	1336.9
x2 = 0.5348	986.41	981.52	976.42	971.29	1392.5	1374.2	1353.8	1333.5
x2 = 0.5798	990.36	985.42	980.28	975.11	1389.7	1371.1	1350.6	1330.2
x2 = 0.6145	993.49	988.51	983.33	978.13	1387.5	1368.7	1348.2	1327.7
x2 = 0.6698	998.63	993.56	988.34	983.08	1384.1	1365	1344.4	1323.8
x2 = 0.7148	1002.9	997.82	992.55	987.23	1381.5	1362	1341.4	1320.7
x2 = 0.7682	1008.2	1003	997.69	992.32	1378.5	1358.7	1338	1317.1
x2 = 0.8015	1011.6	1006.4	1001	995.58	1376.8	1356.7	1335.9	1314.9
x2 = 0.8542	1017.2	1011.8	1006.4	1000.8	1374.1	1353.6	1332.7	1311.5
x2 = 0.9054	1022.7	1017.3	1011.7	1006.2	1371.7	1350.8	1329.6	1308.3
